For assay [1], the target named is T1, p53 Y220C (Homo sapiens, UniProt P04637, P309S/R273H/Y220C).
T1 construct: a truncated mutant containing only amino acids 94-312 of p53; made in house; host or cells: E. coli
Nature of the assay: DNA binding test (HTRF): binding of P53Y220C protein to DNA. The conditions noted are these: HTRF, activation of p53 Y220C (aa 94-312) binding to biotin DNA. It counts as biochemical. As for the experimental part:
(§1) In order to detect the ability of the aforementioned compounds to increase the binding of P53Y220C protein to DNA, the binding activity of p53 Y220C was measured by homogeneous time-resolved fluorescence (HTRF). Recombinant His-tagged p53 Y220C for HTRF measurement was expressed in bacteria E. coli. The recombinant protein was a truncated mutant containing only amino acids 94-312 of p53, and its sequence was […] […] VEGNLR […] TFRh[…] […]. The sense strand of the DNA double strand was 5′-[…]-3′, with a biotin tag at the 5′ end for activity assay, and the antisense strand was 5′-[…]-3′ 40 mL of assay buffer (20 mM Tris HCL, pH 7.5, 50 mM NaCl, 2 mM MgCl2, 0.02% Tween 20, 0.01% BSA, 1 mM DTT) was prepared. 10 mM compound was prepared and subjected to 3-fold dilution to obtain 10 dose gradient dilutions of the compound. 20 nL of the compound was added to a 384-well assay plate (PerkinElmer 6007299) using an Echo 655 Liquid Handler. P53Y220C protein was dissolved in assay buffer to reach a final concentration of 150 nM, and 5 μL thereof was added to each well, and incubated at room temperature for 5 min. DNA was dissolved in assay buffer to reach a final concentration of 150 nM, and 5 μL thereof was added to each well, and incubated at room temperature for 15 min. Anti 6HIS-XL665 (Cisbio 61HISXLB) was dissolved in assay buffer to reach a final concentration of 20 nM, and 5 μL thereof was added to each well. Streptavidin-Eu cryptate (Cisbio 610SAKLA) was dissolved in assay buffer to reach a final concentration of 0.625 nM, and 5 μL thereof was added to each well, and incubated at 27° C. for 1 hour. The plate was then read for signal values on an Envision (PerkinElmer 2105-0020) plate reader at 665 nm and 615 nm, respectively. […] Activation rate={(A-C)/(C)}*100%, A=(signal value at 665 nm/signal value at 615 nm); C=average signal of negative control (wherein, negative control referred to 0.1% DMSO).

In assay [2] the target is T2, p53 Y220C (Homo sapiens, UniProt P04637, Y220C).
T2 construct: a truncated mutant containing only amino acids 94-312 of p53; made in house; host or cells: E. coli
The description is as above. It counts as biochemical. The settings on record: multiple ratio of EC50 of the compound to the reference compound, DNA binding test. Here is the method: as §1

In another assay the test system is NUGC-3 cells. Nature of the assay: NUGC-3 cell proliferation assay (CTG). It counts as cell-based, human. The settings on record: for GI50: 6 days, CTG; for Compound GI50 (nM)/Reference compound GI50 (nM): multiple ratio of GI50 of the compound to the reference compound. Here is the method: In order to detect the inhibitory effect of the aforementioned compounds on the proliferation ability of NUGC-3 cells, 250 NUGC-3 cells (Nanjing Cobioer Biosciences Co., Ltd., CBP60492) were seeded into a 384-well plate (Corning 3765), 35 μL per well, and incubated overnight in a constant temperature incubator at 37° C. and 5% CO2. Then, 40 nL of the compound was added to the 384-well plate using an Echo 655 Liquid Handler, with a maximum final concentration of 10 μM, 1:3 serial dilutions, and a total of 10 doses. The culture was performed at 37° C. and 5% CO2 for 6 days. The plate was taken out from the incubator and equilibrated at room temperature for 10 minutes. 20 μL of CTG (Promage G7572) was added to each well of the plate according to the platemap. The plate was centrifuged at 1000 rpm for 1 min. The lysis of cells was induced by mixing on a shaker for 2 min. The plate was centrifuged at 1000 rpm for 1 min. Incubation was performed at room temperature for 10 min to stabilize luminescence signals. Luminescence values were recorded by Envision (PerkinElmer 2105-0020). GraphPad 9.0 was used to fit the inhibition rate and compound concentration into a nonlinear regression curve (dose response-variable slope) to calculate GI50, inhibition rate={1−(A−B)/(C−B)}*100%, A=signal value of compound; B=average signal of blank control; C=average signal of negative control (wherein negative control was 0.1% DMSO).

In general, EC50 refers to the concentration needed to bring the measured effect to its halfway point. Read a low EC50 as higher potency in that assay. As usually defined, the GI50 is the concentration at which growth is held to half of that of the control. High values mean less potent growth inhibition, low ones more potent growth inhibition.

Marks after values point to notes of the source that are not given here.

For `CNC(=O)c1ccc(NCC#Cc2nc3c(NC4CCC(F)(F)CC4)cccn3c2CC(F)(F)F)c(OC)c1` [Compound 6], the EC50 at p53 Y220C [1] lay within 100 to 500 nM. For the same molecule, the “Compound EC50 (nM)/Reference compound EC50 (nM)” value (“Compound EC50” below) at p53 Y220C [2] is recorded as “C (C: EC50 of the compound≥3*EC50 of the reference compound)”. Also, in the assay with NUGC-3 cells (Homo sapiens, NUGC-3, 144 h), the GI50 is ≥ 5000 nM. Also, in the assay on NUGC-3 cells, the “Compound GI50 (nM)/Reference compound GI50 (nM)” value (shortened to “Compound GI50”) is “C (C: GI50 of the compound ≥ 3 * GI50 of the reference compound)”.

In turn, `CNC(=O)c1ccc(NCC#Cc2nc3c(NC4CCN(C)CC4)cccn3c2CC(F)(F)F)c(F)c1` [Compound 13] showed an EC50 on p53 Y220C [1] of 100 to 500 nM. Also, on p53 Y220C [2], the “Compound EC50” value is on record as “B (B: EC50 of the reference compound<EC50 of the compound≤3.0*EC50 of the reference compound)”. This molecule also came in with a GI50 with NUGC-3 cells (Homo sapiens, NUGC-3, 144 h) of 1000 to 5000 nM. For the same molecule, in the assay on NUGC-3 cells, the “Compound GI50” value is “C (C: GI50 of the compound ≥ 3 * GI50 of the reference compound)”.

In turn, `COc1cc(C(=O)NC2CCOCC2)ccc1NCC#Cc1nc2c(NC3CCN(C)CC3)cccn2c1CC(F)(F)F` [Compound 29] displayed an EC50 at p53 Y220C [1] of 100 to 500 nM. Further, on p53 Y220C [2], the “Compound EC50” value is listed as “C (C: EC50 of the compound≥3*EC50 of the reference compound)”. This molecule also displayed a GI50 in the assay on NUGC-3 cells (Homo sapiens, NUGC-3, 144 h) of 1000 to 5000 nM. The “Compound GI50” value in the assay on NUGC-3 cells is on record as “C (C: GI50 of the compound ≥ 3 * GI50 of the reference compound)”.

As to `CN1CCC(Nc2cccn3c(CC(F)(F)F)c(-c4nnc(CNC(=O)c5cnn(Cc6ccccc6)c5)s4)nc23)CC1` [Compound 23], the EC50 at p53 Y220C [1] lay in the range of 100 to 500 nM. The “Compound EC50” value on p53 Y220C [2] is on record as “B (B: EC50 of the reference compound<EC50 of the compound≤3.0*EC50 of the reference compound)”. Further, in the assay on NUGC-3 cells (Homo sapiens, NUGC-3, 144 h), the GI50 fell in the range of 1000 to 5000 nM. The “Compound GI50” value in the assay with NUGC-3 cells is listed as “C (C: GI50 of the compound ≥ 3 * GI50 of the reference compound)”.

At p53 Y220C [1], `CNC(=O)c1ccc(NCC#Cc2nc3c(NC4CCC(N5CC6(COC6)C5)CC4F)cccn3c2CC(F)(F)F)c(OC)c1` (single isomer, unassigned) [Compound 35-6e] displayed an EC50 of 100 to 500 nM. On p53 Y220C [2], the “Compound EC50” value was “C (C: EC50 of the compound≥3*EC50 of the reference compound)”. Further, in the assay on NUGC-3 cells, the GI50 is ≥ 5000 nM and the “Compound GI50” value was “C (C: GI50 of the compound ≥ 3 * GI50 of the reference compound)”.

For the molecule `[2H]C([2H])([2H])NC(=O)c1ccc(NCC#Cc2cc3c(NC4CCC(N5CCOCC5)CC4F)cccn3c2CC(F)(F)F)c(OC([2H])([2H])[2H])c1` (single isomer, unassigned) [Compound 73d], the EC50 at p53 Y220C [1] was < 100 nM. In addition, the “Compound EC50” value on p53 Y220C [2] is “B (B: EC50 of the reference compound<EC50 of the compound≤3.0*EC50 of the reference compound)”. In the assay on NUGC-3 cells (Homo sapiens, NUGC-3, 144 h), the GI50 is < 1000 nM. Moreover, the “Compound GI50” value with NUGC-3 cells is given as “A (A: GI50 of the compound ≤ GI50 of the reference compound)”.

On to `CNC(=O)c1ccc(NCC#Cc2nc3c(NC4CCC(N5CC6(COC6)C5)CC4F)cccn3c2CC(F)(F)F)c(OC)c1` (single isomer, unassigned) [Compound 35-6h], for which the EC50 on p53 Y220C [1] was < 100 nM. Moreover, the “Compound EC50” value at p53 Y220C [2] is reported as “B (B: EC50 of the reference compound<EC50 of the compound≤3.0*EC50 of the reference compound)”. In addition, in the assay on NUGC-3 cells, the GI50 was in the range of 1000 to 5000 nM and the “Compound GI50” value is on record as “C (C: GI50 of the compound ≥ 3 * GI50 of the reference compound)”.

Take `CN1CCC(Nc2cccn3c(CC(F)(F)F)c(-c4ncc(CNC(=O)c5ccn(C(C)(C)C)c5)s4)nc23)CC1` [Compound 24]: the EC50 on p53 Y220C [1] lay within 100 to 500 nM. In addition, the “Compound EC50” value on p53 Y220C [2] is “C (C: EC50 of the compound≥3*EC50 of the reference compound)”. This molecule also came in with a GI50 in the assay on NUGC-3 cells (Homo sapiens, NUGC-3, 144 h) of 1000 to 5000 nM. Further, the “Compound GI50” value in the assay with NUGC-3 cells is “C (C: GI50 of the compound ≥ 3 * GI50 of the reference compound)”.

In the case of `CNC(=O)c1ccc(NCC#Cc2nc3c(NC4CCC(N5CC6(COC6)C5)CC4F)cccn3c2CC(F)(F)F)c(OC)c1` (single isomer, unassigned) [Compound 35-6j], the 50% effective concentration (EC50) on p53 Y220C [1] was < 100 nM. For the same molecule, at p53 Y220C [2], the “Compound EC50” value is recorded as “C (C: EC50 of the compound≥3*EC50 of the reference compound)”. Further, in the assay with NUGC-3 cells, the GI50 was < 1000 nM and the “Compound GI50” value is given as “C (C: GI50 of the compound ≥ 3 * GI50 of the reference compound)”.

Source of the values: patent US20260132128A1, “COMPOUND FOR RECOVERING P53 MUTATION FUNCTION AND USE THEREOF” (SHENZHEN ZHONGGE BIOLOGICAL TECHNOLOGY CO., LTD., priority 2022, published 2026).
